Results taken from patent US6121322A, “Azulene derivatives” (Boehringer Mannheim GmbH, priority 1997, dated 2000).
In brackets after ≈: the same amount, converted by molar mass. Entries after “also recorded” stand apart in the source; their conditions may differ.

What was measured:
[1] = test system: TNFα; conditions: cited from earlier work
[2] = in vivo; cited from earlier work
[3] = test system: HIV; conditions: cited from earlier work
[4] = test system: TNFα synthesis; assay: TNFα Synthesis Assay (LPS-stimulated human leukocytes, TNFα in supernatant by enzyme immunoassay); assay type: cell-based; conditions: Leukocyte, 37° C., 2 hours, read-out: TNFα synthesis inhibition in vitro IC50
Description: Experimental Procedure in Vitro
Human leukocytes are obtained from heparinized full blood over a Ficol gradient, washed with RPMI 1640 medium having the prescribed additives and adjusted in the same medium to a cell count of 1×10^6 cells/ml. 20 μl of the substance to be tested in 10-fold concentration, 20 μl of an LPS solution of 4 μg/ml and 160 μl of the adjusted cell suspension are incubated in the individual wells of a 96 well culture plate at 37° C. for 2 hours. The experiments are carried out as double determinations. At the end of the incubation period the plates are carefully shaken and centrifuged. Two samples each of 50 μl are withdrawn from the clear culture supernatant for the analysis of TNFα.
Analysis of TNFα in the Cell Cupernatant by Enzyme Immunoassay
Nunc-Maxisorb plates are coated with a mouse-anti-human-TNFα antibody (1 μg/ml, 50 μl/well, Dianova/Pharmingen 18631D, carbonate buffer pH 9.5) and free binding capacity is saturated with a gelatine- and serum albumin-containing blocking buffer. After washing the plates there are pipetted in double determination in each case 25 μl of the analyte as well as on each plate a series of standard concentrations. For the detection of the analyte, 25 μl of a biotinylated mouse-anti-human-TNFα antibody ([…] 25 μl/well, Dianova/Pharmingen 18642D, blocking buffer) are added and the plates are shaken at room temperature for 2 hours. After washing incubation is carried out with streptavidin-alkaline phosphatase conjugate (50 μl/well) and finally with 4-nitrophenyl phosphate and evaluation is carried out on a photometer. The concentrations of the measured samples are determined using a computer program based on a calibration curve from the co-determined standard concentrations.
Determination of the IC50
The percentage inhibition for the individual sample is calculated by comparing the TNFα concentration obtained for the measured samples with the non-inhibited samples. The IC50 is determined by computer from the concentration relationship of the inhibitor value.

[5] = test system: PDE4; conditions: cited from earlier work
[6] = test system: TNFα; conditions: in vivo; cited from earlier work
[7] = test system: animal models for multiple sclerosis; conditions: animal experiments; cited from earlier work

Structure (SMILES) | side effects [2] | IC50 [4] [µg/mL] | further results
O=C1CCC(N2C(=O)c3ccccc3C2=O)C(=O)N1 (stereo not shown) [Thalidomide] | teratogenic side effects | – | TNFα blockade [1]: weak TNFα blockade; suppression of the proliferation of HIV [3]: supresses the proliferation of HIV
CCOC(=O)c1c2ccc(CC(=O)NOCC(=O)N(CCOC)CCOC)ccc-2c(C(=O)OCC)c1N [Example 4, Diethyl 2-amino-6-{[2-oxo-2-(N,N-bis-2-methoxyethyl-amino)-ethoxycarbamoyl]-methyl}-azulene-1,3-dicarboxylate] | – | 0.03 (≈ 0.0562 µM) | –
COc1ccc(C2CNC(=O)C2)cc1OC1CCCC1 (stereo not shown) [rolipram] | emetic activity; also recorded: massive side effects | – | inhibition of PDE4 [5]: inhibits PDE4; inhibition of the synthesis of TNFα [6]: inhibition of the synthesis of TNFα in vitro and in vivo; activity in animal models for multiple sclerosis [7]: very good activity
CCOC(=O)c1c2ccc(CC(=O)NOCCN3CCOCC3)ccc-2c(C(=O)OCC)c1N [Example 20] | – | 0.05 (≈ 0.106 µM) | –
CCOC(=O)c1c2ccc(CC(=O)NOC(=O)N3CCN(C)CC3)ccc-2c(C(=O)OCC)c1N [Example 31, Diethyl 2-amino-6-{[(4-methyl-piperazino)-carbonyloxy-carbamoyl]-methyl}-azulene-1,3-dicarboxylate] | – | 0.1 (≈ 0.206 µM) | –
